Drawing on patent US9040565B2, “1H-benzimidazole-5-carboxamides as anti-inflammatory agents” (Orexo AB, priority 2008, dated 2015), this text covers inhibition for 20 compounds.

Molecules are shown by their SMILES.

The target of this assay is T1, recombinant human mPGES-1 (Homo sapiens, UniProt O14684).
T1 construct: made in house; host or cells: Rosetta E. coli (microsomal/membrane fraction)
T1 sequence (O14684 1-152): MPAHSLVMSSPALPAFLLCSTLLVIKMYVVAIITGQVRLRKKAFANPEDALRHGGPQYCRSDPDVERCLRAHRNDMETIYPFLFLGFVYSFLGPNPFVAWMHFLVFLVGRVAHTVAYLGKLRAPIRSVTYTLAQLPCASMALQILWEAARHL
Briefly: mPGES-1 inhibition, HTRF detection of PGE2 (Biological Test). It is filed as biochemical. How it is done:
Microsomes from Rosetta E. coli bacteria expressing recombinant human mPGES-1 is dissolved in 0.1 M KPi pH 7.4 buffer containing 2.5 mM GSH. 50 μl of the enzyme is subsequently dispensed in a 384-well plate. 0.5 μl of the inhibitor dissolved in DMSO at is thereafter added to each well and incubated for 25 minutes at room temperature.
Subsequently, 2 μl of PGH2 dissolved in an appropriate solvent is added to each well and after one minute the acidified stop solution containing FeCl2 is added. 4 μl of the total volume is transferred to a separate plate and diluted 750-fold in two separate steps before HTRF detection of PGE2.
The HTRf detection is performed by the use of a commercially available kit from CisBio essentially according to the manufacturer's protocol. Briefly, 10 μl of the diluted sample is transferred to a white 384-well plate. 5 μl of d2 and 5 μl Eu3+-Cryptate labeled anti-PGE2 is added to each well containing samples by the use of a Multidrop. The plate is covered with a plastic self-adhesive film, centrifuged at 1200 rpm for 1 minute and subsequently stored at +4° C. over night.
After over night incubation the fluorescence is measured by the use of an appropriate microplate reader. The fluorescence of europium cryptate, and d2 are measured using the following excitation and emission wavelength, europium cryptate: λmax^ex=307 nm, λmax^em=620 nm and d2: λmax^ex=620 nm, λmax^em=665 nm), respectively. The extent of the specific FRET is measured as a ratio of the emission intensity at 665 nm vs. that at 620 nm. A standard curve using synthetic PGE2 is used to quantify the amount of PGE2 in unknown samples.

On to `COc1cc2[nH]c(Nc3c(Cl)cncc3Cl)nc2cc1C(=O)Nc1cc(C(F)(F)F)cc(N(C)C)n1` [Example 692, 2-(3,5-Dichloropyridin-4-ylamino)-N-(6-dimethylamino-4-trifluoromethyl-pyridin-2-yl)-6-methoxy-1H-benzimidazole-5-carboxamide], for which the inhibition at 10 µM worked out at 95%.
The value for `CCOc1cc2[nH]c(Nc3c(Cl)cncc3Cl)nc2cc1C(=O)NCc1ncccc1Cl` [Example 693, 2-(3,5-Dichloropyridin-4-ylamino)-N-((3-chloro-pyridin-2-yl)-methyl)-6-ethoxy-1H-benzimidazole-5-carboxamide] was 97%.
For the compound `CCOc1cc2[nH]c(Nc3c(Cl)cncc3Cl)nc2cc1C(=O)Nc1cc(C(F)(F)F)ccn1` [Example 694, 2-(3,5-Dichloropyridin-4-ylamino)-N-(4-trifluoromethyl-pyridin-2-yl)-6-ethoxy-1H-benzimidazole-6-carboxamide], the inhibition at 10 µM stood at 98%.
The value for `CCOc1cc2[nH]c(Nc3c(Cl)cncc3Cl)nc2cc1C(=O)Nc1ccc(Br)cc1` [Example 695, 2-(3,5-Dichloropyridin-4-ylamino)-N-(4-bromo-phenyl)-6-ethoxy-1H-benzimidazole-6-carboxamide] was 94%.
On to `COc1cc2[nH]c(Nc3c(Cl)cncc3Cl)nc2cc1C(=O)Nc1cccc(N(C)C)n1` [Example 696, 2-(3,5-Dichloropyridin-4-ylamino)-N-(6-dimethylamino-pyridin-2-yl)-6-methoxy-1H-benzimidazole-5-carboxamide], for which the inhibition at 10 µM was found to be 100%.
For `CCOc1cc2[nH]c(Nc3c(Cl)cncc3Cl)nc2cc1C(=O)Nc1cc(C(F)(F)F)cc(N(C)C)n1` [Example 697] the value was 100%; for `CCOc1cc2[nH]c(Nc3c(Cl)cncc3Cl)nc2cc1C(=O)Nc1cccc(C(F)F)n1` [Example 698], 99%; for `O=C(Nc1cc(C(F)F)c(F)cn1)c1cc2nc(Nc3c(Cl)cncc3Cl)[nH]c2cc1OCC(F)(F)F` [Example 699], 100%.
The value for `O=C(NCC(F)(F)C(F)(F)C(F)(F)C(F)(F)F)c1cc2nc(Nc3ncc(Cl)cc3Cl)[nH]c2cc1OC(F)F` [Example 700, 2-(3,5-Dichloro-pyridin-2-yl-amino)-N-(2,2,3,3,4,4,5,5,5-nonafluoro-pentyl)-6-(difluoromethoxy)-1H-benzimidazole-5-carboxamide] was 98%; that for `O=C(N[C@H]1CC[C@H](C(F)(F)F)CC1)c1cc2nc(Nc3c(Cl)cncc3Cl)[nH]c2cc1OC(F)F` [Example 701, 2-(3,5-Dichloropyridin-4-ylamino)-N-(trans-4-trifluoromethyl-cyclohex-1-yl)-6-difluoromethoxy-1H-benzimidazole-5-carboxamide] was 100%.
For `O=C(Nc1cc(C(F)(F)F)ccn1)c1cc2nc(Nc3c(Cl)cncc3Cl)[nH]c2cc1OC(F)F` [Example 702] the value was 95%.
In the case of `O=C(Nc1ccc(Br)cc1)c1cc2nc(Nc3c(Cl)cncc3Cl)[nH]c2cc1OC(F)F` [Example 703, 2-(3,5-Dichloropyridin-4-ylamino)-N-(4-bromo-phenyl)-6-difluoromethoxy-1H-benzimidazole-5-carboxamide], the inhibition at 10 µM came out at 98%.
For `CCOc1cc2c(cc1C(=O)Nc1ccc(Br)cc1)nc(Nc1c(Cl)cncc1Cl)n2CC(F)(F)F` [Example 704] the value was 100%; for `CCOc1cc2c(cc1C(=O)Nc1cc(C(F)(F)F)ccn1)nc(Nc1c(Cl)cncc1Cl)n2CC(F)(F)F` [Example 705], 94%; for `CC(F)(F)c1cccc(NC(=O)c2cc3nc(Nc4c(Cl)cncc4Cl)[nH]c3cc2OCC(F)(F)F)n1` [Example 706], 100%.
For `O=C(Nc1ccc(F)c(C(F)F)n1)c1cc2nc(Nc3c(Cl)cncc3Cl)[nH]c2cc1OCC(F)(F)F` [Example 707, 2-(3,5-Dichloropyridin-4-ylamino)-N-(6-difluoromethyl-5-fluoro-pyridin-2-yl)-6-(2,2,2-trifluoroethoxy)-1H-benzimidazole-6-carboxamide] the value was 100%.
The value for `O=C(Nc1cccc(C(F)F)n1)c1cc2nc(Nc3c(Cl)cncc3Cl)[nH]c2cc1OCC(F)(F)F` [Example 708, 2-(3,5-Dichloropyridin-4-ylamino)-N-(6-difluoromethyl-pyridin-2-yl)-6-(2,2,2-trifluoroethoxy)-1H-benzimidazole-6-carboxamide] was 100%.
As to `CCOc1cc2[nH]c(Nc3c(Cl)cncc3Cl)nc2cc1C(=O)Nc1cc(C)cc(C(F)(F)F)n1` [Example 709], the inhibition at 10 µM turned out to be 100%.
For `CCOc1cc2[nH]c(Nc3c(Cl)cncc3Cl)nc2cc1C(=O)Nc1ccc(F)c(C(F)F)n1` [Example 710, 2-(3,5-Dichloropyridin-4-ylamino)-N-(5-fluoro-6-difluoromethyl-pyridin-2-yl)-6-ethoxy-1H-benzimidazole-6-carboxamide] the value was 98%.
`O=C(NCc1ncccc1C(F)F)c1cc2nc(Nc3c(Cl)cncc3Cl)[nH]c2cc1OCC(F)(F)F` [Example 711, 2-(3,5-Dichloropyridin-4-ylamino)-N-((3-difluoromethyl-pyridin-2-yl)-methyl)-6-(2,2,2-trifluoro-ethoxy)-1H-benzimidazole-5-carboxamide]: the inhibition at 10 µM was determined as 98%.
